Reference: US20110098240A1, “PHARMACEUTICAL COMPOSITION COMPRISING A SGLT2 INHIBITOR IN COMBINATION WITH A DPP-IV INHIBITOR” (BOEHRINGER INGELHEIM INTERNATIONAL GMBH, priority 2007, published 2011)

Experiments:
[1] = oral glucose tolerance test in overnight fasted rats; type: in vivo, male Sprague Dawley rats (Crl:CD(SD)); conditions: single oral dose 30 min before oral glucose load 2 g/kg; Cpd. A 1 mg/kg, dapagliflozin 0.3 mg/kg, combination at same doses; non-diabetic rats, n=5/group; blood glucose up to 120 min
Procedure: The following example show the beneficial effect on glycemic control of the combination of a SGLT2 inhibitor and a DPP IV inhibitor according to the present invention as compared to the respective monotherapies. All experimental protocols concerning the use of laboratory animals are reviewed by a federal Ethics Committee and approved by governmental authorities. According to this example an oral glucose tolerance test is performed in overnight fasted male Sprague Dawley rats (Crl:CD(SD)) with a body weight of about 200 g. A pre-dose blood sample is obtained by tail bleed. Blood glucose is measured with a glucometer, and the animals are randomized for blood glucose (n=5/group). Subsequently, the groups receive a single oral administration of either vehicle alone (0.5% aqueous hydroxyethylcellulose containing 0.015% Polysorbat 80) or vehicle containing either the SGLT2 inhibitor or the DPPIV inhibitor or the combination of the SGLT2 inhibitor with the DPPIV inhibitor. The animals receive an oral glucose load (2 g/kg) 30 min after compound administration. Blood glucose is measured in tail blood 30 min, 60 min, 90 min, and 120 min after the glucose challenge. Glucose excursion is quantified by calculating the reactive glucose AUC. The data are presented as mean±S.E.M. Statistical comparisons are conducted by Student's t test.
“Cpd. […]

[2] = metformin on its own, in the diabetic; cited from earlier work

SMILES | reduction of glucose excursion (reactive glucose AUC) [1] [%] | average improvement in the HbA1c value [2]
CCOc1ccc(Cc2cc([C@@H]3O[C@H](CO)[C@@H](O)[C@H](O)[C@H]3O)ccc2Cl)cc1 [dapagliflozin, Dapagliflozin] | 31 | –
CN(C)C(=N)N=C(N)N [metformin] | – | 1.0-1.5%
CC#CCn1c(N2CCC[C@@H](N)C2)nc2c1c(=O)n(Cc1nc(C)c3ccccc3n1)c(=O)n2C [Cpd. A, 1-[(4-methyl-quinazolin-2-yl)methyl]-3-methyl-7-(2-butyn-1-yl)-8-(3-(R)-amino-piperidin-1-yl)-xanthine] | 25 | –
